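Each compound was tested at five concentrations against cells in 96-well plates for 48 hours. Abbreviation: GI50, concentration required for 50% inhibition of growth. TGI: concentration producing complete growth inhibition.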 Where only a bound is given, the exact number is not on record here.

Test systems include CCRF-CEM leukemia; COLO 205 colon; EKVX NSCLC; HL-60(TB) leukemia; HOP-92 NSCLC; HS 578T breast; MCF7 breast; NCI-H23 lung; NCI/ADR-RES ovarian; SF-295 CNS.
Assay in all cases: DTP human tumour cell line panel, 48 h

The term GI50 denotes the concentration that inhibits growth by half. The term TGI denotes the concentration at which net growth stops. Take `Cc1ccc(S(=O)(=O)Oc2ccc([N+](=O)[O-])cc2[N+](=O)[O-])cc1`: the GI50 in the experiment with CCRF-CEM leukemia was 0.6 µM; in the experiment with COLO 205 colon, 4.51 µM; in the experiment on EKVX NSCLC, 17.9 µM; with HL-60(TB) leukemia it was 11.4 µM; with HOP-92 NSCLC, 4.34 µM; with HS 578T breast, 21.5 µM. Moreover, the GI50 in the experiment on MCF7 breast is 4.13 µM; in the experiment with NCI-H23 lung, 6.15 µM; with NCI/ADR-RES ovarian, 5.31 µM; with SF-295 CNS it was 10.4 µM. The concentration for total growth inhibition (TGI) is 15.7 µM in the experiment on CCRF-CEM leukemia; 18.6 µM with COLO 205 colon; 34.4 µM with EKVX NSCLC; 38.3 µM in the experiment with HL-60(TB) leukemia; 21.7 µM in the experiment on HOP-92 NSCLC; over 100 µM in the experiment on HS 578T breast. In addition, the total growth inhibition concentration (TGI) with MCF7 breast is 23.2 µM; in the experiment with NCI-H23 lung it was 32.3 µM; with NCI/ADR-RES ovarian it was 38 µM; in the experiment with SF-295 CNS, 25.2 µM.
On to `COc1cc2c(F)nccc2cc1C(=O)N[C@@H](c1ccc(F)c(Cl)c1)[C@@H]1C[C@@H](O)CN1`, for which the GI50 was 0.299 µM in the experiment with CCRF-CEM leukemia; 3.1 µM in the experiment on COLO 205 colon; 2.02 µM in the experiment with EKVX NSCLC; 2.11 µM in the experiment with HL-60(TB) leukemia; 0.291 µM in the experiment on HOP-92 NSCLC; 0.0715 µM with HS 578T breast. The GI50 with MCF7 breast is 0.575 µM; in the experiment with NCI-H23 lung, 11.1 µM; in the experiment with NCI/ADR-RES ovarian it was 14 µM; in the experiment with SF-295 CNS it was 0.131 µM. Also, the TGI in the experiment with CCRF-CEM leukemia was over 42 µM; in the experiment on COLO 205 colon, 19.4 µM; in the experiment with EKVX NSCLC, 17.8 µM; in the experiment on HL-60(TB) leukemia, 5.61 µM; in the experiment on HOP-92 NSCLC it was 7.83 µM; in the experiment on HS 578T breast, 2.41 µM. For the same compound, the TGI worked out at 12.1 µM in the experiment on MCF7 breast, 26 µM in the experiment with NCI-H23 lung, 47 µM in the experiment with NCI/ADR-RES ovarian and 13.2 µM with SF-295 CNS.
On to `CCN1C(=O)N(CC)C2C1NN=c1s/c(=C\c3ccccc3F)c(=O)n12` (stereo not drawn), for which the GI50 was 0.0386 µM with CCRF-CEM leukemia; 0.0271 µM with COLO 205 colon; 0.0481 µM with EKVX NSCLC; 0.0239 µM in the experiment with HL-60(TB) leukemia; 1.11 µM with HOP-92 NSCLC; 0.0345 µM in the experiment on HS 578T breast. Besides, the GI50 in the experiment with MCF7 breast was 0.0325 µM; with NCI-H23 lung, 0.0641 µM; in the experiment with NCI/ADR-RES ovarian it was 0.0296 µM; in the experiment on SF-295 CNS, 0.0242 µM. The total growth inhibition concentration (TGI) in the experiment on CCRF-CEM leukemia was over 100 µM; in the experiment with COLO 205 colon, 0.0737 µM; in the experiment with EKVX NSCLC it was over 100 µM; in the experiment on HL-60(TB) leukemia, 0.0607 µM; in the experiment with HOP-92 NSCLC, 69 µM; in the experiment on HS 578T breast, over 100 µM. Besides, the TGI with MCF7 breast was over 63.6 µM; in the experiment on NCI-H23 lung, over 100 µM; in the experiment on NCI/ADR-RES ovarian, over 63.6 µM; in the experiment with SF-295 CNS, over 49.8 µM.
On to `CCC(=O)C1(c2ccccc2)CCN(C)CC1`, for which the total growth inhibition concentration (TGI) with CCRF-CEM leukemia, in the experiment with COLO 205 colon, in the experiment on EKVX NSCLC, in the experiment on HL-60(TB) leukemia, with HOP-92 NSCLC and in the experiment with HS 578T breast was over 100 µM in each case. In addition, the TGI in the experiment with MCF7 breast, with NCI-H23 lung, in the experiment on NCI/ADR-RES ovarian and in the experiment on SF-295 CNS was over 100 µM each time.
Turning to `Cc1cc(C(=O)Nc2nc3cccc(Cl)c3n2[C@@H]2CCCCN(C(=O)/C=C/CN(C)C)C2)ccn1`, the GI50 in the experiment on CCRF-CEM leukemia was 12.5 µM; with COLO 205 colon, 7.69 µM; with EKVX NSCLC, 0.518 µM; in the experiment with HL-60(TB) leukemia it was 17 µM; in the experiment with HOP-92 NSCLC it was 6.94 µM; in the experiment with HS 578T breast, 9.11 µM. Besides, the GI50 is 4.95 µM with MCF7 breast, 12.9 µM with NCI-H23 lung, 5.37 µM with NCI/ADR-RES ovarian and 13.9 µM in the experiment with SF-295 CNS. The TGI with CCRF-CEM leukemia was 56.2 µM; in the experiment on COLO 205 colon, 22.4 µM; in the experiment with EKVX NSCLC, 18.7 µM; in the experiment on HL-60(TB) leukemia it was 38.3 µM; in the experiment with HOP-92 NSCLC, 32.2 µM; in the experiment on HS 578T breast, 37.3 µM. Also, the total growth inhibition concentration (TGI) in the experiment with MCF7 breast stood at 20.3 µM; in the experiment with NCI-H23 lung, 38 µM; with NCI/ADR-RES ovarian it was 49 µM; with SF-295 CNS, 28.6 µM.
As to `O=C(NCCc1ccccc1)C(c1ccccc1)(c1ccccc1)c1ccccc1`, the GI50 is 40 µM with CCRF-CEM leukemia; 3.26 µM with COLO 205 colon; 4.13 µM with EKVX NSCLC; 38.7 µM in the experiment on HL-60(TB) leukemia; over 100 µM with HOP-92 NSCLC; 3.88 µM with HS 578T breast. In addition, the GI50 with MCF7 breast was 26 µM; in the experiment with NCI/ADR-RES ovarian, 2.23 µM; with SF-295 CNS, 2.51 µM. Moreover, the concentration for total growth inhibition (TGI) with CCRF-CEM leukemia was over 100 µM; with COLO 205 colon it was over 100 µM; in the experiment on EKVX NSCLC it was 27.1 µM; with HL-60(TB) leukemia, over 100 µM; with HOP-92 NSCLC, over 100 µM; in the experiment with HS 578T breast, 23.7 µM. In addition, the TGI was over 100 µM in the experiment on MCF7 breast, 6.59 µM with NCI/ADR-RES ovarian and 9.36 µM with SF-295 CNS.
